# Results from US9809589B2, “Crystal form of compound used as mineralocorticoid receptor antagonist and preparation method therefor” (KBP BIOSCIENCES CO., LTD., priority 2012, dated 2017).
# Entries after “also recorded” stand apart in the source; their conditions may differ.
# Legend:
# [1] = system: high salt induced Dahl salt sensitive (Dahl/SS) rats; test: Assay 3: depressurization effect (SBP, tail-cuff) in hypertension and kidney injury Dahl/ss rat model; type: in vivo; conditions: for SBP Before Administration (mean ± SD): baseline, solid dispersion with PVPK30 1:8, oral gavage twice a day; for SBP After Administration (on 41th day) (mean ± SD): oral gavage twice a day, 4% NaCl chow, solid dispersion with PVPK30 1:8
# Experimental: (§1) Organ protection and depressurization effect of Crystal Form I of the present invention on the high salt induced Dahl salt sensitive (Dahl/SS) rats
# (§2) The solid dispersion of Crystal Form I of the present invention (Crystal Form I of the present invention: PVPK30=1:8 (w/w)): the solid dispersion of Crystal Form I of the present invention was formulated with a suitable amount of sterile water for injection into suspensions having concentrations of 0.03, 0.10, 0.30, and 1.00 mg/mL. The suspension was prepared before use every day.
# (§3) Experiment animals: male Dahl/ss rats of SPF (specific pathogen free)-grade, 8-9 weeks, purchased via Vital River Laboratories from HARLAN LABORATORIES, INC. After one week normal quarantine, rats in good sign and condition were used in the experiment.
# (§4) Dahl/ss rats were randomly divided into six groups according to the blood pressure measurement before administration:
# (§5) The in vivo pharmacodynamic activity of Crystal Form I of the present invention was evaluated by the hypertension and kidney injury Dahl/ss rat's model.
# (§6) One week before the experiment, the blood pressures of rats were monitored twice by the tail-cuff blood pressure measurement so that the rats could accommodate the blood pressure monitoring operation. The blood pressures of rats were monitored once before starting the experiment and used as the basic blood pressures before administration. The rats were randomly divided into groups according to the measured blood pressures before administration. The model was established by feeding the rats with a high salt chow (AIN-93G experiment animal feed containing 4% NaCl) for 42 days, in which the rats were freely accessible to food and water. And rats in control group were fed with a low-sodium chow.
# (§7) The rats in the treatment groups with Crystal Form I of the present invention were respectively administrated with Crystal Form I of the present invention in a dosage of 0.3, 1, 3, and 10 mg/kg/day. Rats in treatment groups were dosed orally via gavage twice a day by 5 mL/kg. The rats in the model group and in the normal control were administrated with the same volume of sterile water for injection.
# Blood pressure (systolic blood pressure, abbreviated as SBP) measurement: The blood pressure was measured once each week for six weeks. The blood pressure changes were analyzed for each group.
# [2] = system: high salt induced Dahl salt sensitive (Dahl/SS) rats; test: Assay 3: pathological examinations for kidney and heart (organ protection) in Dahl/ss rat model; type: in vivo; conditions: for left ventricular wall thickness (mean ± SD) / Kidney injury scores (Mean ± SD): 42 days high salt chow; for Kidney injury scores (Mean ± SD): HE stain
# Experimental: as §1, §2, §3, §4, §5, §6, §7
# The pathological examinations for kidney and heart: After the experiment, the rats were killed in a painless manner. The heart and the bilateral kidneys were collected for histopathology analysis. Kidney injury was scored and semi-quantitatively analyzed based on hematoxylin-eosin (HE) stain. The heart injury was analyzed by the measurement of left ventricular wall thickness.
# [3] = Assay 1: stability (influencing factor tests) for Crystal Form I; HPLC content; type: physicochemical
# Experimental: Assay 1: Stability for Crystal Form I of the Present Compound
# Crystal Form I of the compound represented by formula (1): Crystal Form I was prepared according to Example 2.
# (1) Crystal Form I of the compound represented by formula (1) was laid on a dry and clean watch glass, and kept at 60° C. for 10 days. Samples were taken respectively on Day 5 and Day 10. The contents of the relevant substance and the compound represented by formula (1) in the sample were measured, and compared with the contents of those in the sample taken on Day 0;
# (2) Crystal Form I of the compound represented by formula (1) was packaged and sealed with a low-density polyethylene bag for pharmaceutical use in the inner layer and with a polyester/aluminum/polyethylene composite film for pharmaceutical package in the outer layer, and kept at 60° C. for 10 days. Samples were taken respectively on Day 5 and Day 10. The contents of the relevant substance and the compound represented by formula (1) in the sample were measured, and compared with the contents of those in the sample taken on Day 0.
# High humidity test: Crystal Form I of the compound represented by formula (1) was laid on a dry and clean watch glass, and kept at 25° C. under a relative humidity of 90%±5% for 10 days. Samples were taken respectively on Day 5 and Day 10. The contents of the relevant substance and the compound represented by formula (1) in the sample were measured, and compared with the contents of those in the sample taken on Day 0.
# Photostability test: Crystal Form I of the compound represented by formula (1) was laid on a dry and clean watch glass, and kept at an illuminance of 4500 L×±500 L× in an illumination box for 10 days. Samples were taken respectively on Day 5 and Day 10. The contents of the relevant substance and the compound represented by formula (1) in the sample were measured, and compared with the contents of those in the sample taken on Day 0.
# (§8) The content of the compound represented by formula (1) was measured by using an external standard method in accordance with the High Performance Liquid Chromatography in Chinese Pharmacopoeia, Appendix V D, Edition 2010.
# (§9) The content of the relevant substance was measured by using an area normalization method in accordance with the High Performance Liquid Chromatography in Chinese Pharmacopoeia, Appendix V D, Edition 2010.
# [4] = Assay 2: stability (influencing factor tests) for Crystal Form II; HPLC content; type: physicochemical
# Experimental: Stability for Crystal Form II of the present compound
# Crystal Form II of the compound represented by formula (1): Crystal Form II was prepared according to Example 4.
# (1) Crystal Form II of the compound represented by formula (1) was laid on a dry and clean watch glass, and kept at 60° C. for 10 days. Sample was taken on Day 10. The contents of the relevant substance and the compound represented by formula (1) in the sample were measured, and compared with the contents of those in the sample taken on Day 0;
# (2) Crystal Form II of the compound represented by formula (1) was packaged and sealed with a low-density polyethylene bag for pharmaceutical use in the inner layer and with a polyester/aluminum/polyethylene composite film for pharmaceutical package in the outer layer, and kept at 60° C. for 10 days. Sample was taken on Day 10. The contents of the relevant substance and the compound represented by formula (1) in the sample were measured, and compared with the contents of those in the sample taken on Day 0.
# High humidity test: Crystal Form II of the compound represented by formula (1) was laid on a dry and clean watch glass, and kept at 25° C. under a relative humidity of 90%±5% for 10 days. Sample was taken respectively on Day 10. The contents of the relevant substance and the compound represented by formula (1) in the sample were measured, and compared with the contents of those in the sample taken on Day 0.
# Photostability test: Crystal Form II of the compound represented by formula (1) was laid on a dry and clean watch glass, and kept at an illuminance of 5000 L×±500 L× in an illumination box for 10 days. Sample was taken on Day 10. The contents of the relevant substance and the compound represented by formula (1) in the sample were measured, and compared with the contents of those in the sample taken on Day 0.
# as §8, §9
# [5] = 60° C.-(1), open watch glass, Day 5
# [6] = 60° C.-(1), open watch glass, Day 10
# [7] = 60° C.-(2), packaged and sealed, Day 5
# [8] = 60° C.-(2), packaged and sealed, Day 10
# [9] = high temperature, high humidity, illumination
compound,measurement,setting,value
"N#Cc1ccc(N2N=C3c4ccc(C(=O)N5CCC(O)CC5)nc4CC[C@@H]3[C@@H]2C2CCCC2)cc1Cl [Crystal Form I, 2-chloro-4-[(3S,3aR)-3-cyclopentyl-7-(4-hydroxypiperidin-1-carbonyl)-3,3a,4,5-tetrahydro-2H-pyrazolo[3,4-f]quinolin-2-yl]benzonitrile]",SBP Before Administration (mean ± SD),[1]; 0.3 mg/kg/day group,140.8 ± 9.6 mmHg
same,SBP After Administration (on 41th day) (mean ± SD),[1]; 0.3 mg/kg/day,166.5 ± 10.2 mmHg
same,SBP Before Administration (mean ± SD),[1]; 1 mg/kg/day group,140.9 ± 9.5 mmHg
same,SBP After Administration (on 41th day) (mean ± SD),[1]; 1 mg/kg/day,148.7 ± 9.6 mmHg
same,SBP Before Administration (mean ± SD),[1]; 3 mg/kg/day group,141.0 ± 9.4 mmHg
same,SBP After Administration (on 41th day) (mean ± SD),[1]; 3 mg/kg/day,141.6 ± 8.0 mmHg
same,SBP Before Administration (mean ± SD),[1]; 10 mg/kg/day group,141.2 ± 9.2 mmHg
same,SBP After Administration (on 41th day) (mean ± SD),[1]; 10 mg/kg/day,141.2 ± 9.6 mmHg
same,Depressurization effect,"[1]; 0.3-10 mg/kg/day oral, high salt Dahl/ss rats, listed as Crystal Form I of the present invention",significant depressurization effect; also recorded: remarkable depressurization effect
same,left ventricular wall thickness (mean ± SD),[2]; 0.3 mg/kg/day oral,0.392 ± 0.024 cm
same,Kidney injury scores (Mean ± SD),[2]; 0.3 mg/kg/day oral,2.02 ± 0.268
same,left ventricular wall thickness (mean ± SD),[2]; 1 mg/kg/day oral,0.383 ± 0.017 cm
same,Kidney injury scores (Mean ± SD),[2]; 1 mg/kg/day oral,1.25 ± 0.428
same,left ventricular wall thickness (mean ± SD),[2]; 3 mg/kg/day oral,0.381 ± 0.026 cm
same,Kidney injury scores (Mean ± SD),[2]; 3 mg/kg/day oral,1.84 ± 0.596
same,left ventricular wall thickness (mean ± SD),[2]; 10 mg/kg/day oral,0.383 ± 0.019 cm
same,Kidney injury scores (Mean ± SD),[2]; 10 mg/kg/day oral,1.71 ± 0.719
same,Heart protection (left ventricular wall thickness),[2]; compared with the model group,significantly decreased the left ventricular wall thickness
same,Kidney protection (kidney injury score),"[2]; treatment groups vs model group, listed as Crystal Form I of the present invention",remarkable prevention from the increase in the kidney injury score; also recorded: kidney injury protection
same,Stability compared with the amorphous form,[3],superior to the amorphous form in the stability
same,Content of the compound represented by formula (1),[3]; [5],98.9%
same,Content of the relevant substance,[3]; [5],0.82%
same,Content of the compound represented by formula (1),[3]; [6],98.1%
same,Content of the relevant substance,[3]; [6],0.97%
same,Content of the compound represented by formula (1),[3]; [7],99.7%
same,Content of the relevant substance,[3]; [7],0.58%
same,Content of the compound represented by formula (1),[3]; [8],99.0%
same,Content of the relevant substance,[3]; [8],0.60%
same,Content of the compound represented by formula (1),"[3]; 4500 Lx ± 500 Lx, Day 5",98.1%
same,Content of the relevant substance,"[3]; 4500 Lx ± 500 Lx, Day 5",1.2%
same,Content of the compound represented by formula (1),"[3]; 4500 Lx ± 500 Lx, Day 10",97.0%
same,Content of the relevant substance,"[3]; 4500 Lx ± 500 Lx, Day 10",2.0%
same,Content of the compound represented by formula (1),[3]; Day 0,99.5%
same,Content of the relevant substance,[3]; Day 0,0.54%
same,Content of the compound represented by formula (1),"[3]; RH90% ± 5%, 25° C., Day 5",99.1%
same,Content of the relevant substance,"[3]; RH90% ± 5%, 25° C., Day 5",0.56%
same,Content of the compound represented by formula (1),"[3]; RH90% ± 5%, 25° C., Day 10",99.0%
same,Content of the relevant substance,"[3]; RH90% ± 5%, 25° C., Day 10",0.56%
same,Change of contents of the relevant substance and the compound represented by formula (1),[3]; [9],substantially did not change
"N#Cc1ccc(N2N=C3c4ccc(C(=O)N5CCC(O)CC5)nc4CC[C@@H]3[C@@H]2C2CCCC2)cc1Cl [Crystal Form II, 2-chloro-4-[(3S,3aR)-3-cyclopentyl-7-(4-hydroxypiperidin-1-carbonyl)-3,3a,4,5-tetrahydro-2H-pyrazolo[3,4-f]quinolin-2-yl]benzonitrile]",Stability compared with the amorphous form,[4],superior to the amorphous form in the stability
same,Content of the compound represented by formula (1),[4]; [6],96.2%
same,Content of the relevant substance,[4]; [6],2.8%
same,Content of the compound represented by formula (1),[4]; [8],97.1%
same,Content of the relevant substance,[4]; [8],2.7%
same,Content of the compound represented by formula (1),"[4]; 5000 Lx ± 500 Lx, Day 10",95.5%
same,Content of the relevant substance,"[4]; 5000 Lx ± 500 Lx, Day 10",2.8%
same,Content of the compound represented by formula (1),[4]; Day 0,96.2%
same,Content of the relevant substance,[4]; Day 0,2.6%
same,Content of the compound represented by formula (1),"[4]; RH90% ± 5%, 25° C., Day 10",96.9%
same,Content of the relevant substance,"[4]; RH90% ± 5%, 25° C., Day 10",2.6%
same,Change of contents of the relevant substance and the compound represented by formula (1),[4]; [9],substantially did not change
